Results on 14 molecules are retold here after PubChem BioAssay (NCI).

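96-well plates; 48 h exposure; 5 concentrations. Endpoints by linear interpolation between flanking doses. Not reached: highest tested concentration assigned. Abbreviation: GI50, concentration required for 50% inhibition of growth. TGI denotes the concentration required for complete inhibition of growth.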

Some test systems named below: DU-145 prostate; MOLT-4 leukemia; OVCAR-8 ovarian; PC-3 prostate; RPMI-8226 leukemia; SK-OV-3 ovarian; SN12C renal; SNB-75 CNS.
Assay in all cases: growth of human tumour cells (NCI), 48 h

Take `O=C(O)CCC/C=C\C[C@H]1C=CC(=O)/C1=C/C[C@@H](O)CCc1cccc(C(F)(F)F)c1`: the GI50 in the test on DU-145 prostate was 2.43 µM; in the test on MOLT-4 leukemia, 2.21 µM; in the test on OVCAR-8 ovarian it was 2.86 µM; in the test on PC-3 prostate, 3.12 µM; with RPMI-8226 leukemia it was 1.91 µM; in the test with SK-OV-3 ovarian, 5.66 µM. Also, the GI50 was 3.41 µM in the test with SN12C renal and 9.41 µM in the test on SNB-75 CNS. Moreover, the TGI in the test on DU-145 prostate amounted to 10.3 µM; with MOLT-4 leukemia, 7.34 µM; in the test on OVCAR-8 ovarian, 11.6 µM; with PC-3 prostate it was 10.3 µM; with RPMI-8226 leukemia, 12.2 µM; in the test on SK-OV-3 ovarian, 18.3 µM. Moreover, the values for the TGI in the test with SN12C renal and in the test on SNB-75 CNS were 26.8 µM and 22.2 µM, respectively.
As for `CN1C(=O)[C@@H](NC(=O)[C@H](CCC(F)(F)F)[C@H](CCC(F)(F)F)C(N)=O)N=C(c2ccccc2)c2ccccc21`, the GI50 in the test with DU-145 prostate is over 100 µM; in the test with MOLT-4 leukemia, 27.3 µM; with OVCAR-8 ovarian, over 100 µM; in the test on PC-3 prostate it was 55.7 µM; in the test on RPMI-8226 leukemia, 58.7 µM; with SK-OV-3 ovarian, over 100 µM. Also, the GI50 in the test with SN12C renal was over 100 µM; in the test with SNB-75 CNS, 32.6 µM. Moreover, the TGI in the test with DU-145 prostate, with MOLT-4 leukemia, with OVCAR-8 ovarian, in the test with PC-3 prostate, in the test with RPMI-8226 leukemia and in the test on SK-OV-3 ovarian was over 100 µM throughout. The TGI in the test with SN12C renal and with SNB-75 CNS was over 100 µM in each case.
Regarding `CN(C)c1ncc(-c2ccc(C(F)(F)F)cc2)c(NC2CCCCCC2)n1`, the GI50 in the test on DU-145 prostate is 27.1 µM; with MOLT-4 leukemia, 14.8 µM; with OVCAR-8 ovarian it was 25.8 µM; in the test with PC-3 prostate, 20.2 µM; in the test on RPMI-8226 leukemia, 6.51 µM; with SK-OV-3 ovarian it was 29 µM. Besides, the figures for the GI50 in the test with SN12C renal and in the test on SNB-75 CNS were 17.3 µM and 20.6 µM, respectively. The TGI is over 100 µM in the test with DU-145 prostate; 34.7 µM in the test on MOLT-4 leukemia; over 100 µM with OVCAR-8 ovarian; 87.1 µM with PC-3 prostate; 24.4 µM in the test with RPMI-8226 leukemia; 95.4 µM in the test with SK-OV-3 ovarian. In addition, the TGI in the test with SN12C renal was 62.2 µM; with SNB-75 CNS, 93.8 µM.
Regarding `CS(=O)(=O)Nc1cccc(-c2cc(-c3ccccc3Cl)c(C#N)c(N)n2)c1`, the GI50 in the test on DU-145 prostate was 1.17 µM; with MOLT-4 leukemia it was 0.894 µM; with OVCAR-8 ovarian it was 1.05 µM; in the test on PC-3 prostate, 0.531 µM; in the test with RPMI-8226 leukemia, 0.702 µM; with SK-OV-3 ovarian, 0.737 µM. Besides, the GI50 was 0.722 µM in the test with SN12C renal and 0.239 µM in the test with SNB-75 CNS. For the same molecule, the TGI in the test on DU-145 prostate is 13 µM; in the test with MOLT-4 leukemia it was over 51.5 µM; in the test with OVCAR-8 ovarian it was 19.9 µM; with PC-3 prostate, 14.1 µM; in the test with RPMI-8226 leukemia it was 27.5 µM; in the test with SK-OV-3 ovarian, 13.8 µM. In addition, the TGI with SN12C renal is 24.4 µM; with SNB-75 CNS, 2.44 µM.
Consider `Cc1nc(CN2CCCCC2)c(O)c(=O)[nH]1`, for which the TGI in the test with DU-145 prostate, with MOLT-4 leukemia, with OVCAR-8 ovarian, with PC-3 prostate, with RPMI-8226 leukemia and with SK-OV-3 ovarian was over 100 µM each time. Also, the TGI in the test on SN12C renal and in the test with SNB-75 CNS was over 100 µM each time.
Regarding `Nc1nc2cc3ccc(C4CC(O)C(CO)O4)cc3cc2c(=O)[nH]1` (stereo not given), the GI50 in the test with DU-145 prostate, with MOLT-4 leukemia, with OVCAR-8 ovarian, in the test on PC-3 prostate, in the test with RPMI-8226 leukemia and in the test on SK-OV-3 ovarian was over 100 µM in each case. Moreover, the GI50 with SN12C renal is over 100 µM; with SNB-75 CNS, 49.6 µM. The TGI with DU-145 prostate, in the test on MOLT-4 leukemia, with OVCAR-8 ovarian, with PC-3 prostate, in the test with RPMI-8226 leukemia and in the test on SK-OV-3 ovarian was over 100 µM throughout. Besides, the TGI in the test on SN12C renal and in the test on SNB-75 CNS was over 100 µM each time.
As to `N#CC(C#N)N=Nc1ccc(Br)cc1`, the GI50 is 4.02 µM in the test with DU-145 prostate; 2.72 µM in the test with MOLT-4 leukemia; 3.67 µM in the test on OVCAR-8 ovarian; 2.42 µM with PC-3 prostate; 1.52 µM with RPMI-8226 leukemia; 22.3 µM in the test on SK-OV-3 ovarian. In addition, the values for the GI50 with SN12C renal and in the test on SNB-75 CNS were 2.64 µM and 13.7 µM, respectively. For the same molecule, the TGI is over 51.1 µM with DU-145 prostate; over 66.2 µM in the test on MOLT-4 leukemia; 33.4 µM in the test with OVCAR-8 ovarian; 17.7 µM in the test on PC-3 prostate; 8.03 µM in the test on RPMI-8226 leukemia; over 100 µM with SK-OV-3 ovarian. Also, the results for the TGI with SN12C renal and with SNB-75 CNS were 9.51 µM and over 100 µM, respectively.
Turning to `O=C(O)c1ccc(S(=O)(=O)Nc2ccc3oc4c(c3c2)C(=O)CCC4)cc1`, the GI50 in the test on DU-145 prostate, with MOLT-4 leukemia, in the test with OVCAR-8 ovarian, in the test with PC-3 prostate, in the test on RPMI-8226 leukemia and in the test with SK-OV-3 ovarian was over 100 µM throughout. Also, the GI50 with SN12C renal and in the test with SNB-75 CNS was over 100 µM in each case. The TGI in the test on DU-145 prostate, with MOLT-4 leukemia, with OVCAR-8 ovarian, in the test with PC-3 prostate, in the test with RPMI-8226 leukemia and in the test on SK-OV-3 ovarian was over 100 µM each time. Besides, the TGI in the test with SN12C renal and in the test on SNB-75 CNS was over 100 µM throughout.
With `CC(C)CC(=O)Nc1n[nH]c2c1CN(C(=O)C1CCN(C)CC1)C2(C)C`, the GI50 in the test with DU-145 prostate was 1.6 µM; in the test with MOLT-4 leukemia, 0.917 µM; in the test on OVCAR-8 ovarian, 1.3 µM; in the test with PC-3 prostate, 1.33 µM; with RPMI-8226 leukemia, 0.506 µM; in the test on SK-OV-3 ovarian, 2.53 µM. Moreover, the GI50 with SN12C renal was 1.27 µM; in the test on SNB-75 CNS it was 1.02 µM. In addition, the TGI was over 10 µM in the test on DU-145 prostate; over 10 µM with MOLT-4 leukemia; over 10 µM in the test with OVCAR-8 ovarian; over 10 µM in the test with PC-3 prostate; 5.97 µM with RPMI-8226 leukemia; over 10 µM in the test on SK-OV-3 ovarian. Further, the TGI in the test with SN12C renal was over 10 µM; in the test with SNB-75 CNS, 4.14 µM.
On to `CS(=O)(=O)CCNCc1ccc(-c2ccc3ncnc(Nc4ccc(OCc5cccc(F)c5)c(C(F)(F)F)c4)c3c2)o1`, for which the GI50 in the test on DU-145 prostate was 3.91 µM; with MOLT-4 leukemia, 3.81 µM; in the test with OVCAR-8 ovarian, 4.76 µM; with PC-3 prostate, 4.86 µM; in the test on RPMI-8226 leukemia it was 4.79 µM; with SK-OV-3 ovarian, 3.61 µM. In addition, the GI50 with SN12C renal is 4.73 µM; in the test with SNB-75 CNS, 3.52 µM. In addition, the TGI in the test with DU-145 prostate was 8.07 µM; in the test with MOLT-4 leukemia, 11.1 µM; in the test with OVCAR-8 ovarian, 11.2 µM; in the test on PC-3 prostate it was 10.8 µM; with RPMI-8226 leukemia, 15.6 µM; in the test on SK-OV-3 ovarian, 9.86 µM. Besides, the TGI in the test on SN12C renal was found to be 14.9 µM; in the test with SNB-75 CNS, 7.77 µM.
Regarding `O=C(/C=N/O)Nc1cc(Cl)c(Cl)cc1Cl`, the TGI with DU-145 prostate is over 100 µM; in the test on MOLT-4 leukemia it was 47.9 µM; with OVCAR-8 ovarian, over 100 µM; in the test with PC-3 prostate, over 100 µM; in the test on RPMI-8226 leukemia, 88.8 µM; with SK-OV-3 ovarian it was over 100 µM. Also, the TGI with SN12C renal is 94.3 µM; in the test with SNB-75 CNS, 66.6 µM.
As for `O=C(Nc1ccccc1O)c1ccc(CNc2ccnc(C(F)(F)F)c2)cc1`, the GI50 in the test on DU-145 prostate was 3.38 µM; with MOLT-4 leukemia, 2.38 µM; with OVCAR-8 ovarian it was 5.15 µM; in the test on PC-3 prostate, 2.72 µM; in the test with RPMI-8226 leukemia it was 0.5 µM; with SK-OV-3 ovarian, 5.41 µM. Moreover, the results for the GI50 in the test with SN12C renal and with SNB-75 CNS were 4.61 µM and 7.26 µM, respectively. Also, the TGI in the test with DU-145 prostate is 19.4 µM; with MOLT-4 leukemia, 28.5 µM; in the test with OVCAR-8 ovarian it was over 100 µM; in the test with PC-3 prostate it was 48.4 µM; in the test with RPMI-8226 leukemia it was 5.09 µM; with SK-OV-3 ovarian, 41.7 µM. In addition, the TGI was over 100 µM in the test with SN12C renal and 48.4 µM in the test with SNB-75 CNS.
`O=C(O)c1cc2ccccc2c(N=Nc2cc(C(F)(F)F)ccc2Cl)c1O`: the TGI with DU-145 prostate, with MOLT-4 leukemia, in the test with OVCAR-8 ovarian, with PC-3 prostate, in the test on RPMI-8226 leukemia and in the test on SK-OV-3 ovarian was over 100 µM each time. Further, the results for the TGI in the test with SN12C renal and in the test with SNB-75 CNS were over 100 µM and 0.0907 µM, respectively.
In the case of `Cc1nccc2c3ccc(OCc4cn(-c5ccc(Cl)cc5)nn4)cc3n(CCCc3ccccc3)c12`, the GI50 was 4.33 µM in the test with DU-145 prostate; 6.97 µM in the test with MOLT-4 leukemia; 1.21 µM in the test on OVCAR-8 ovarian; 2.42 µM in the test with PC-3 prostate; 2.45 µM in the test with RPMI-8226 leukemia; over 33.3 µM in the test with SK-OV-3 ovarian. Also, the GI50 with SN12C renal was 8.81 µM; in the test with SNB-75 CNS, 0.565 µM. Also, the TGI was over 33.3 µM with DU-145 prostate; over 33.3 µM in the test on MOLT-4 leukemia; 4.22 µM with OVCAR-8 ovarian; 16.6 µM in the test on PC-3 prostate; over 33.3 µM in the test on RPMI-8226 leukemia; over 33.3 µM in the test on SK-OV-3 ovarian. Besides, the TGI stood at 31.2 µM in the test on SN12C renal and 1.57 µM in the test on SNB-75 CNS.
